{"source": "patent US20210369720A1", "about": "“SYNERGISTIC COMPOSITION HAVING NEUROPROTECTIVE PROPERTIES AND METHODS OF USE THEREOF” (Rutgers, The State University of New Jersey, priority 2018, published 2021)", "key": {"[1]": {"test_system": "Syn^Tg mice", "test": "Rotarod, Syn^Tg mice", "assay_type": "in vivo", "conditions": "EHT 12 mg/kg/day in chow and/or caffeine 50 mg/kg/day in drinking water from weaning until six months of age, vs untreated Syn^Tg mice", "description": "(§1) Thy1-α-synuclein transgenic mice (Syn^Tg) on BDF1 background overexpressing human wild-type α-synuclein under the control of the Thy1 promoter were maintained by mating heterozygous transgenic females with WT BDF1 males (Rockenstein E, et al. (2002) Differential neuropathological alterations in transgenic mice expressing alpha-synuclein from the platelet-derived growth factor and Thy-1 promoters. J Neurosci Res 68(5):568-578). BDF1 mice (mixed C57BL/6-DBA/2) were generated every three months by mating female C57BL/6 (The Jackson Laboratory) and male DBA/2 mice (Charles River). Experiments were performed with male transgenic mice and their WT littermates. […] Wild-type littermates received regular water and control chow. […] At two months of age, mice were inoculated with α-Syn PFF unilaterally in the striatum. These treatments continued throughout the experiment until animals were sacrificed. Mice were weighed and their food and water intake was quantified weekly. Animals were housed 2-5/cage in an AAALAC approved facility in a temperature- and humidity-controlled environment under a 12-hour light/dark cycle and were maintained on a diet of lab chow and water ad libitum. […]"}, "[2]": {"test_system": "phosphorylated α-synuclein (p-α-Syn)", "test": "Western blot of p-α-Syn in cortical tissue lysates, Syn^Tg mice", "assay_type": "in vivo", "conditions": "EHT 12 mg/kg/day and/or caffeine 50 mg/kg/day until six months of age, vs untreated Syn^Tg mice", "description": "as §1, with “weekly.” for “weekly. Animals were housed 2-5/cage in an AAALAC approved facility in a temperature- and humidity-controlled environment under a 12-hour light/dark cycle and were maintained on a diet of lab chow and water ad libitum.”\nHuman neuroblastoma SH-SY5Y cells were cultured in DMEM-F12 with 10% FBS. […] Protein concentration was determined by bicinchonic acid (BCA) method (Pierce), equal amount of protein was separated on 5-20% SDS-PAGE gel (Genescript) and transferred to nitrocellulose or PVDF membrane (Biorad). […]"}, "[3]": {"test_system": "PP2A", "test": "Western blot of PP2A methylation, striatal tissue lysates of Syn^Tg mice", "assay_type": "in vivo", "conditions": "EHT 12 mg/kg/day and/or caffeine 50 mg/kg/day", "description": "(§2) Thy1-α-synuclein transgenic mice (Syn^Tg) on BDF1 background overexpressing human wild-type α-synuclein under the control of the Thy1 promoter were maintained by mating heterozygous transgenic females with WT BDF1 males (Rockenstein E, et al. (2002) Differential neuropathological alterations in transgenic mice expressing alpha-synuclein from the platelet-derived growth factor and Thy-1 promoters. J Neurosci Res 68(5):568-578). BDF1 mice (mixed C57BL/6-DBA/2) were generated every three months by mating female C57BL/6 (The Jackson Laboratory) and male DBA/2 mice (Charles River). Experiments were performed with male transgenic mice and their WT littermates. […] Wild-type littermates received regular water and control chow. […] At two months of age, mice were inoculated with α-Syn PFF unilaterally in the striatum. These treatments continued throughout the experiment until animals were sacrificed. Mice were weighed and their food and water intake was quantified weekly. Animals were housed 2-5/cage in an AAALAC approved facility in a temperature- and humidity-controlled environment under a 12-hour light/dark cycle and were maintained on a diet of lab chow and water ad libitum. All animal procedures were approved by the Rutgers-Robert Wood Johnson Medical School Institutional Animal Care and Use Committee and were performed according to the National Institutes of Health Guide for the Care and Use of Laboratory Animals.\n(§3) Human neuroblastoma SH-SY5Y cells were cultured in DMEM-F12 with 10% FBS. At 50% confluency, cells were treated with 1 gg/ml mouse α-Syn PFF in DMEM-F12 with 1% FBS for 7 days. Medium was refreshed every 3 days. Cell harvesting was done with 2% SDS in PBS supplemented with protease inhibitor (Millipore) and phosphatase inhibitor (Sigma-Aldrich). Lysates were sonicated and boiled at 95° C. for 5 minutes. Protein concentration was determined by bicinchonic acid (BCA) method (Pierce), equal amount of protein was separated on 5-20% SDS-PAGE gel (Genescript) and transferred to nitrocellulose or PVDF membrane (Biorad). Following transfer, membranes were blocked for 1 hour at room temperature in blocking buffer (Li-Cor) or 5% (w/v) BSA/TBS-Tween 0.1% (v/v). Primary antibodies were diluted in blocking buffer or 5% (w/v) BSA/TBS-Tween 0.1% (v/v) and incubated with the membranes at 4° C. overnight. Membranes were washed three times in TBS-Tween and incubated in diluted IRDye 800CW or HRP conjugated secondary antibody for 1 hour at room temperature. Following washing, membranes were scanned by Li-Cor Odyssey CLx infrared imaging system or treated with the Western Lightning ECL-plus reagents (PerkinElmer) and exposed to autoradiography films (LabScientific)."}, "[4]": {"test_system": "α-Syn PFF inoculated WT mice", "test": "Wire Hang test, α-Syn PFF inoculated WT mice", "assay_type": "in vivo", "conditions": "EHT 12 mg/kg/day in diet and/or caffeine 50 mg/kg/day in drinking water from weaning, 6 months post-inoculation", "description": "as §1"}, "[5]": {"test_system": "phosphorylated α-synuclein (p-α-Syn)", "test": "Immunohistochemical staining of p-α-Syn, α-Syn PFF inoculated WT mice", "assay_type": "in vivo", "conditions": "EHT 12 mg/kg/day and/or caffeine 50 mg/kg/day", "description": "as §2\nα-Syn PFF solution was sonicated at 60% amplitude 30 times (0.5 sec on, 0.5 sec off). During the stereotactic surgery, two month old WT C57BL/6 mice were anesthetized by Ketamine/xylazine (90/4.5 mg/kg, i.p., Ketaset from Zoetis, and Anased from Akorn) and positioned in a digital stereotaxic apparatus (Stoelting, Wood Dale, Ill.). A midline sagittal incision was made in the scalp, and a hole was drilled in the skull over the right striatum according to the coordinates below. All injections were made using a Hamilton neuros syringe equipped with a 33 gauge needle and attached to a Quintessential Stereotaxic Injector (Stoelting, Wood Dale, Ill.). A total of 5∝g/2.5 ul of α-Syn PFF was infused in the dorsal striatum (+0.2 mm relative to Bregma, +2.0 mm from midline, +2.6 mm beneath the dura) at a delivery rate of 0.2∝l/min (61). The needle was kept in place for 5 min following the infusion to prevent reflux before withdrawing.\nImmunohistochemical analyses were performed as described previously (Lee et al., 2011; 2012). Mice were perfused transcardially with PBS, and brains were removed and post-fixed in 10% formalin at 4° C. overnight. Fixed brains were then sectioned coronally in 30 am thickness using a cryostat and collected as sets of slices with the same interval. Free-floating sections were blocked by 1% BSA and 0.2% Triton X100 in PBS. Sections were then incubated with primary antibody overnight at 4° C. and biotinylated secondary antibody for 1 hour at room temperature.\nVectastain elite ABC kit (Vector Laboratories, Burlingame, Calif.) and 3,3′-diaminobenzidine (Sigma-Aldrich) were used for amplifying and color development. Images were captured by Nikon Eclipse 55i. Staining intensity and phosphorylated α-synuclein (p-α-Syn) aggregate counts were obtained by Image Pro Plus. Intensity calibration was set to the level of a blank area in each image. HSI (hue, saturation and intensity) was used for the color selection with the standard parameters of H: 0-30, S: 0-255 and I: 0-160. […]"}, "[6]": {"test_system": "dopamine", "test": "Striatal dopamine content by HPLC-MS, α-Syn PFF inoculated WT mice", "assay_type": "in vivo", "conditions": "each compound alone, EHT 12 mg/kg/day or caffeine 50 mg/kg/day, vs untreated α-Syn PFF inoculated mice", "description": "as §1"}, "[7]": {"test_system": "p-α-Syn", "test": "Western blot of p-α-Syn in SH-SY5Y cells challenged with α-Syn PFF", "assay_type": "cell-based, Human", "conditions": "SH-SY5Y cells challenged with mouse α-Syn PFF for 7 days; caffeine and/or EHT added to the medium", "method": "as §3"}, "[8]": {"conditions": "vs untreated α-Syn PFF inoculated mice"}}}
{"smiles": "CCCCCCCCCCCCCCCCCCCC(=O)NCCc1c[nH]c2ccc(O)cc12", "note": "[EHT, eicosanoyl-5-hydroxytryptamide]", "values": [{"measurement": "performance on the rotarod", "setting": "[1]", "value": "did not improve performance"}, {"measurement": "p-α-Syn levels by Western blot, cortical tissue lysates", "setting": "[2]", "value": "no significant effect"}, {"measurement": "ratio between methyl- and demethyl-PP2A", "setting": "[3]", "value": "did not change"}, {"measurement": "Demethylated PP2A (demethyl-PP2A) levels", "setting": "[3]; normalized to total PP2A", "value": "not affected"}, {"measurement": "Methylated PP2A (Methyl-PP2A) levels", "setting": "[3]; normalized to total PP2A", "value": "did not change"}, {"measurement": "performance on the wire hang test", "setting": "[4]", "value": "improved performance"}, {"measurement": "p-α-Syn immunoreactivity in the ipsilateral nigra", "setting": "[5]", "value": "less abundant"}, {"measurement": "p-α-Syn in the contralateral striatum", "setting": "[5]; [8]", "value": "partially but insignificantly reduced"}, {"measurement": "p-α-Syn in the ipsilateral striatum", "setting": "[5]; [8]", "value": "partially but insignificantly reduced"}, {"measurement": "dopamine (DA) content in lysates of the ipsilateral striatum, benefit in words", "setting": "[6]", "value": "did not have a significant benefit"}, {"measurement": "p-α-Syn levels", "setting": "[7]", "value": "reduced it partially"}]}
